Results on seven compounds are retold here after ChEMBL document CHEMBL1201862, “PubChem BioAssay data set” (2004).

Test in all cases: NCI anticancer screen, dose series, 48 h
The test system of experiment [1] is A549.
Experiment [2] concerns BT-549.
Experiment [3] relates to COLO 205.
Experiment [4] deals with HCT-15.
Experiment [5] deals with HOP-92.
For experiment [6], the system named is K562.
Experiment [7] has as its system KM12.
Experiment [8] concerns M14.
Experiment [9] relates to MCF7.
Experiment [10] has as its system MDA-MB-435.
Experiment [11] has as its system Malme-3M.
Experiment [12] deals with NCI-H226.
Experiment [13] deals with NCI/ADR-RES.
Experiment [14] concerns OVCAR-5.
For experiment [15], the system named is OVCAR-8.
For experiment [16], the system named is SK-MEL-5.
For experiment [17], the system named is SN12C.
The test system of experiment [18] is T47D.
The test system of experiment [19] is TK-10.
Experiment [20] has as its system U-251.

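Briefly, cells in 96-well plates were exposed to five compound concentrations for 48 h, and endpoints were estimated by linear interpolation. Abbreviation: GI50, concentration required for 50% inhibition of growth.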 The source made the active and inactive calls. Rule as the data show it: active = GI50 up to about 1.1 µM and inactive = higher.

For `O=C(OC(/C=C/c1ccccc1)P1(=O)N(Cc2ccccc2)[C@@H]2CCCC[C@H]2N1Cc1ccccc1)c1ccccc1` (stereo not given in full), the GI50 in experiment [1] is 3.94 µM (inactive); in experiment [2], 4.26 µM (inactive); in experiment [3], 2.04 µM (inactive); in experiment [4], 3.44 µM; in experiment [5], 2.08 µM (inactive); in [6], 3.37 µM (inactive). Also, the GI50 in [7] is 3.57 µM (inactive); in experiment [8] it was 3.69 µM (inactive); in experiment [9] it was 3.52 µM (inactive); in experiment [10], 3.66 µM (inactive); in [11] it was 3.54 µM (inactive); in experiment [12] it was 6.43 µM (inactive). Further, the GI50 in experiment [13] was 2.74 µM (inactive); in [14] it was 4.43 µM (inactive); in experiment [15], 3.29 µM (inactive); in experiment [16], 3.14 µM (inactive); in [17] it was 3.03 µM (inactive); in [18], 4.43 µM (inactive). In addition, the results for the GI50 in experiment [19] and in [20] were 4.82 µM (inactive) and 3.79 µM (inactive), respectively.

As for `OC(c1ccccc1)(c1cccnc1)C(O)(c1ccccc1)c1cccnc1` (stereo not given), the GI50 in experiment [1] was > 100 µM (inactive); in experiment [2], > 100 µM (inactive); in [3] it was > 100 µM (inactive); in [4] it was greater than 100 µM; in [5] it was > 100 µM (inactive); in experiment [6] it was > 10 µM (inactive). Also, the GI50 in [7] was > 100 µM (inactive); in experiment [8], > 100 µM (inactive); in experiment [9], > 100 µM (inactive); in experiment [10], > 100 µM (inactive); in experiment [11], > 100 µM (inactive); in [12], 69.7 µM (inactive). Further, the GI50 in [13], in experiment [14], in [15], in [16], in experiment [17] and in [18] was > 100 µM (inactive) throughout. The GI50 in [19] and in experiment [20] was > 100 µM (inactive) throughout.

With `CCCCC1Cc2cc(O)ccc2-c2n1c1cc(O)ccc1[n+]2C.CCCCC1Cc2cc(O)ccc2-c2n1c1ccc(O)cc1[n+]2C` (stereo not given), the GI50 in experiment [1] was 22.9 µM (inactive); in experiment [2] it was 19 µM (inactive); in [3], 18.3 µM (inactive); in [4] it was 51.8 µM; in experiment [5] it was 9.55 µM (inactive); in experiment [6], 17.7 µM (inactive). For the same compound, the GI50 was 28.2 µM (inactive) in [7]; 37.9 µM (inactive) in experiment [8]; 19 µM (inactive) in experiment [9]; 19 µM (inactive) in [10]; 19.5 µM (inactive) in experiment [11]; 41 µM (inactive) in experiment [12]. In addition, the GI50 is > 100 µM (inactive) in experiment [13]; 63.5 µM (inactive) in [14]; 28.3 µM (inactive) in experiment [15]; 4.05 µM (inactive) in [16]; 5.58 µM (inactive) in [17]; 22.3 µM (inactive) in experiment [18]. The GI50 in experiment [19] was 22.1 µM (inactive); in experiment [20], 1.1 µM (active).

As to `CCN(CC)CCn1c2ccccc2c(=O)c2c(O)ccc(O)c21`, the GI50 was 83.9 µM (inactive) in experiment [1]; 22.5 µM (inactive) in experiment [2]; 20.6 µM (inactive) in experiment [3]; 33.8 µM in experiment [4]; 19.4 µM (inactive) in experiment [5]; 15.9 µM (inactive) in experiment [6]. The GI50 in experiment [7] is 49.2 µM (inactive); in experiment [8], 42 µM (inactive); in experiment [9], 18.8 µM (inactive); in [10] it was 18.6 µM (inactive); in experiment [11] it was 24.7 µM (inactive); in experiment [12], 53.6 µM (inactive). The GI50 in experiment [13] was 19.6 µM (inactive); in experiment [14], 55.7 µM (inactive); in [15], 19.6 µM (inactive); in [16], 21.3 µM (inactive); in experiment [17], 30.8 µM (inactive); in [18], 18.2 µM (inactive). Besides, the GI50 is 31.6 µM (inactive) in [19] and 42.1 µM (inactive) in experiment [20].

`CC1OC(OC2C(O)COC(OC3C(C)OC(OC4C(OC(=O)[C@]56CCC(C)(C)C[C@@H]5C5=CCC7[C@@]8(C)C[C@H](O)[C@H](OC9OC(CO)C(O)C(O)C9O)[C@@](C)(CO)[C@@H]8CC[C@@]7(C)[C@]5(C)CC6)OCC(O)C4O)C(O)C3OC3OCC(O)C(O)C3O)C2O)C(O)C(O)C1O` (stereo not given in full): the GI50 in [1] was 14 µM (inactive); in [2], 31.9 µM (inactive); in [3] it was 4.46 µM (inactive); in [4], 28.8 µM; in experiment [5] it was 24.8 µM (inactive); in experiment [6], 42.9 µM (inactive). The GI50 in [7] is 25.7 µM (inactive); in experiment [8], 11 µM (inactive); in [9], 19.8 µM (inactive); in experiment [10], 21.8 µM (inactive); in [11] it was 34.4 µM (inactive); in experiment [12], 23.1 µM (inactive). Further, the GI50 is 26.2 µM (inactive) in experiment [13]; 14.4 µM (inactive) in experiment [14]; 19.5 µM (inactive) in [15]; 19.5 µM (inactive) in experiment [16]; 17.5 µM (inactive) in [17]; 20.2 µM (inactive) in [18]. The GI50 in [19] was 17.3 µM (inactive); in experiment [20], 20 µM (inactive).

Consider `O=C(Nc1cnc(O)nc1O)Oc1ccccc1`, for which the GI50 in experiment [1] is > 100 µM (inactive); in experiment [2], > 100 µM (inactive); in experiment [3], > 100 µM (inactive); in experiment [4], greater than 100 µM; in [5], > 100 µM (inactive); in experiment [6] it was > 100 µM (inactive). Besides, the GI50 in [7], in [8], in experiment [9], in [10], in experiment [11] and in [12] was > 100 µM (inactive) in each case. Besides, the GI50 in experiment [13], in experiment [14], in experiment [15], in experiment [16], in experiment [17] and in experiment [18] was > 100 µM (inactive) in each case. In addition, the GI50 in experiment [19] and in experiment [20] was > 100 µM (inactive) throughout.

For the compound `COc1ccc(NC(=S)NC(=O)c2ccc3c(c2)Sc2ccccc2O3)c([N+](=O)[O-])c1`, the GI50 in experiment [1] is 42.1 µM (inactive); in experiment [2] it was 37.1 µM (inactive); in experiment [3], > 100 µM (inactive); in experiment [4] it was 24 µM; in [5] it was 19.2 µM (inactive); in [6] it was 64.1 µM (inactive). Besides, the GI50 in experiment [7] is 60.1 µM (inactive); in experiment [8] it was 39.1 µM (inactive); in [9], 27.6 µM (inactive); in [10], 55.8 µM (inactive); in experiment [11], 14.4 µM (inactive); in experiment [12], > 100 µM (inactive). The GI50 is 33.6 µM (inactive) in experiment [13]; > 100 µM (inactive) in [14]; 31 µM (inactive) in [15]; 20.6 µM (inactive) in experiment [16]; 35.1 µM (inactive) in experiment [17]; 22.4 µM (inactive) in [18]. Further, the values for the GI50 in [19] and in experiment [20] were 17.9 µM (inactive) and 20.2 µM (inactive), respectively.
